Series [1] concerns PI3K. The experiment in a line: Western blot of Akt phosphorylation in TGFβ1-stimulated HLF cells. In kind it is cell-based, human. On the set-up: inhibition of Akt phosphorylation on serine 473: dose or concentration left out as unconfirmed. On the procedure: (§1) Lysates were collected and analyzed for the indicated proteins by Western blotting, wherein pAkt (S473) is phosphorylated protein kinase B, Akt is protein kinase B, Col.1 is collagen 1, αSMA is α-smooth muscle actin, pSMAD2 is phosphor-SMAD2 kinase, SMAD2 is mothers against decapentaplegic homolog 2, and GAPDH is glyceraldehyde 3-phosphate dehydrogenase.
(§2) To determine whether the nontargeted version of PI3Ki1 might enter human lung fibroblasts and inhibit PI3K activity, HLF-FAP cells were incubated for 24 h with either omipalisib or PI3Ki1 and then the impact on TGFβ1 stimulation, including phosphorylation of Akt, collagen synthesis, contraction of a collagen gel, and apoptosis of myofibroblasts were examined. […] Moreover, nontargeted PI3Ki1suppressed collagen synthesis with better potency than omipalisib, displaying an IC50˜10 nM (FIG. 4C).
(§3) Serum starved confluent HLF cells were co-incubated in medium containing 10 ng/ml TGFβ1 with or without the indicated concentrations of PI3K inhibitors for 24 hours. Cells were harvested and lysed for Western blot analysis. Following sodium dodecyl sulphate polyacrylamide gel electrophoresis and blocking, membranes were incubated with antibodies to detect pSMAD2 Ser465/467 (#3101, Cell Signalling Technology), or pAkt Ser473 (#4060, Cell signalling Technology), and signals were visualized with ECL Western Blot Detection Reagents (GE Healthcare). […]
On the technique in general: In western blotting, separated proteins are transferred to a membrane and probed.

Series [2] relates to TGFβ1-stimulated HLF cells. The experiment in a line: Collagen synthesis (Col.1/GAPDH) in TGFβ1-stimulated HLF cells. The format is cell-based. The following applies: Homo sapiens, TGFβ1 10 ng/mL, 24 h, read-out: IC50 of suppression of collagen synthesis. On the procedure: as §1, §2, §3
The subject of series [3] is HLF. As to the kind of experiment: HLF contraction of a collagen gel. Particulars: 100 nM. In kind it is cell-based, human. On the procedure: Data were analyzed using one-way ANOVA, followed by post-hoc Tukey test (n=3; *p<0.01).
as §2

Series [4] relates to HLF cells. The experiment in a line: Caspase 3 and 7 activities in HLF cells (drug-induced apoptosis). The format is cell-based. Here is the method:
The experiments in panels A-E have been reproduced three times, each with three independent samples, n=3).
as §2

For series [5], the system named is PI3K. The experiment in a line: Western blot of Akt phosphorylation in TGFβ1-stimulated human IPF fibroblasts. The format is cell-based. Particulars: 3, 9, 27 or 81 min incubation. On the procedure:
After replacing the medium with inhibitor-free medium, the cells were cultured for an additional 22 hours, lysed with phosphatase inhibitor containing cell lysis solution, and analyzed for the indicated proteins by Western blotting (n=3).
After an additional 24-hour incubation, cells were lysed and the indicated proteins were analyzed by Western blotting (n=3).
Random/zed shRNA (shCTL) served as a control (n=2).
FIGS. 8A-8B are representative Western blots showing that FAP-targeted PI-3 Kinase inhibitor (FAPL-PI3Ki1) suppresses phosphorylation of Akt in IPF fibroblasts.
Firstly, primary lung fibroblasts from an IPF patient were stimulated for 24 h with TGFβ1 (to activate them to a FAP-expressing state) and then incubated for 2 h with increasing concentrations of FAPL-PI3Ki1, in the presence or absence of 100-fold excess FAPL to block unoccupied FAP sites.
Secondly, IPF lung fibroblasts were stimulated with TGFβ1 and then incubated for different durations with either FAPL-targeted or nontargeted PI3Ki1, followed by replacement of the culture media with inhibitor-free media (FIG. 7B and FIGS. 8A-8B). The anticipation was that FAP-targeted PI3Ki1 would be retained by FAP on FAP-expressing cells during short incubation times, whereas nontargeted PI3Ki1would not be captured by FAP and would subsequently be washed away when the media was changed. […]

In series [6] the test system is IPF fibroblasts. As to the kind of experiment: Molecular crowding assay for collagen in IPF fibroblasts. Particulars: 100 nM, 2 h, then inhibitor-free media with TGFβ1. The format is cell-based, human. On the procedure:
FIG. 7E and FIG. 7F show assay of collagen biosynthesis (green channel) using a molecular crowding assay (0.1% DMSO vehicle was constant for all experimental conditions). IPF fibroblasts were treated with 100 nM omipalisib, PI3Ki1 or FAPL-PI3Ki1for 2 hours, after which the media were removed and the fibroblasts were further stimulated for 48 h with media containing TGFβ1 (10 ng/mL). Cell counts were obtained from DAPI counterstaining (blue channel). Data were analyzed using one-way ANOVA, followed by post-hoc Tukey test (n=3; *p.-(0.05).
Next, the FAP-targeted PI-3 kinase inhibitors were tested to determine if they might suppress collagen formation by human IPF fibroblasts. For this purpose, TGFβ1-stimulated IPF lung fibroblasts were stimulated for 2 h with omipalisib, PI3Ki1, or FAPL-PI3Ki1, followed by replacement of the inhibitor-containing media with inhibitor-free growth media and continued incubation for 46 h. […] Importantly, this concurrent suppression of both mTOR and PI3K activity should be very beneficial to the desired therapy, since collagen synthesis associated with pathogenic fibrosis can be induced by both pathways.
Confluent IPF fibroblasts (4000 cells/well) were cultured in 96-well plates in DMEM containing 0.4% fetal calf serum, ascorbic acid (100 μM), and mixed Ficoll 70 and Ficoll 400 as molecular crowding agents. […]

The values below come from patent US20230158153A1, “PI3 KINASE INHIBITORS AND USES THEREOF” (Purdue Research Foundation, priority 2020, published 2023).

What is called IC50 is the midpoint of a concentration-inhibition curve. With `COc1ncc(-c2ccc3nccc(-c4ccc(CO)nc4)c3c2)cc1NS(=O)(=O)c1ccc(F)cc1F` [PI3Ki1], the “inhibition of Akt phosphorylation on serine 473” value in series [1] is “nearly complete inhibition”. Moreover, the half-maximal inhibitory concentration (IC50) in series [1] (Homo sapiens, HLF, TGFβ1 10 ng/mL, 24 h, read-out: IC50 of inhibition of phosphorylation of Akt) was approximately 1 nM; in series [2], approximately 10 nM. Also, in series [3], the “inhibition of TGFβ1 stimulated fibroblast contraction of a collagen gel” value was “reduce TGFβ1 induced collagen remodeling”. Besides, the caspase activity result in series [4] (concentrations below 100 nM) was “weak induction of caspase activity”. Also, in series [4] (increasing concentrations), the “fibroblast apoptosis (caspase 3 and 7 activation)” value is “only promoted fibroblast cell death at concentrations much higher than those required to prevent collagen synthesis”. Moreover, in series [5], the “pAkt after short incubation and replacement with inhibitor-free media” value is recorded as “no diminution in pAkt expression”. The biosynthesis of collagen result in series [6] is on record as “only moderately inhibited”.

As to `COc1ncc(-c2ccc3nccc(-c4ccnnc4)c3c2)cc1NS(=O)(=O)c1ccc(F)cc1F` [omipalisib, reference compound], the biosynthesis of collagen result in series [6] is on record as “only moderately inhibited”.
